Experimental findings from patent publication US20170065327A1, “METHODS AND MATERIALS FOR TREATING ELEVATED SYMPATHETIC NERVE ACTIVITY CONDITIONS” (Mayo Foundation for Medical Education and Research, priority 2014, published 2017) are described below.

The subject of test [1] is young and older postmenopausal women. The test is described as follows: Autonomic (ganglionic) blockade with trimethaphan camsylate in young and older postmenopausal women: muscle sympathetic nerve activity, arterial pressure, total peripheral resistance. The class given is in vivo, human. The following applies: during trimethaphan. From the text: (§1) FIG. 1 is a graph plotting muscle sympathetic nerve activity (MSNA; bursts/min) as measured using a microneurography technique for 24 humans. The dose indicates the amount of trimethaphan in mg/min it took to abolish the sympathetic nerve bursts. The MSNA bursts per minute is the amount of sympathetic bursts that occurred at baseline, prior to drug infusion.
(§2) FIG. 2 is a graph plotting the same dose of trimethaphan in mg/min compared to the difference in mean arterial pressure (MAP) between baseline and at the final trimethaphan dose.
The effect of ganglionic blockade on arterial blood pressure and how this relates to baseline muscle sympathetic nerve activity in 12 young (25±1 years) and 12 older postmenopausal (61±2 years) women were examined. The women were studied before and during autonomic blockade using trimethaphan camsylate. At baseline, muscle sympathetic nerve activity burst frequency and burst incidence were higher in the older women (33±3 versus 15±1 bursts/min; 57±5 versus 25±2 bursts/100 heartbeats, respectively; P<0.05). Muscle sympathetic nerve activity bursts were abolished by trimethaphan within minutes (e.g., between about 6 and about 35 minutes). […] Baseline muscle sympathetic nerve activity was associated with the decrease in mean arterial pressure during trimethaphan (r=−0.74; P<0.05). See, also, Barnes et al., Hypertension, 63:303-308 (2014).

For test [2], the system named is healthy humans. The test is described as follows: Brief escalating infusion of trimethaphan camsylate with non-invasive beat-to-beat arterial pressure measurement to distinguish high and low sympathetic activity individuals. The class given is in vivo, human. The conditions noted are these: infusion 1-4 mg/minute for 5-10 minutes, 24 healthy humans.
Description: as §1, §2
Both normal human subjects and patients with diseases such as resistant hypertension can have very wide ranges of baseline sympathetic activity. The following was developed to distinguish those individuals with high levels of baseline sympathetic activity from individuals with lower levels of baseline sympathetic activity. Trimethaphan camsylate, a ganglionic blocking drug, was administered (e.g., by infusion) at 1-4 mg/minute for 5-10 minutes to 24 healthy humans, while non-invasive beat-to-beat measurements of arterial pressure were made. […] The relationship between the fall in blood pressure and baseline sympathetic activity in a group of about 20-30 healthy women ranging in age from their early 20's to their later 60's was determined (FIGS. 1 and 2). Similar data were obtained using healthy men. […]

[3] abbreviates: older postmenopausal women (61±2 years, n=12), P<0.01 versus young.

For the molecule `O=C1N(Cc2ccccc2)C2C[S+]3CCCC3C2N1Cc1ccccc1` (stereo not drawn) [trimethaphan, trimethaphan camsylate], in test [1] (12 young and 12 older postmenopausal women), the “Muscle sympathetic nerve activity bursts” value is on record as “abolished”. Also, the “decrease in mean arterial pressure” value in test [1] (setting [3]) is reported as −29±2 mm Hg; in test [1] (young women (25±1 years, n=12)), −9±2 mm Hg. Besides, the “decrease in total peripheral resistance” value in test [1] (setting [3]) is −10±1 mm Hg/L per minute; in test [1] (young women (25±1 years, n=12)) it was −5±1 mm Hg/L per minute. In addition, the “fall in blood pressure during brief escalating doses” value in test [2] is reported as “directly related to baseline sympathetic activity”.
